Measured values from patent publication US20190053492A1, “SUBSTITUTED PYRIDINE COMPOUNDS AS PESTICIDES” (Bayer CropScience Aktiengesellschaft, priority 2016, published 2019).
Where two headings read alike, the source gives them in different places.

Tests used:
Phaedon cochleariae = Phaedon cochleariae spray test; type: in vivo; settings: after 7 days, Chinese cabbage leaf discs; for pest or weed control at 500 g/ha: Phaedon cochleariae, foliar, 168 h, read-out: efficacy (beetle larvae killed)
Procedure: Phaedon cochleariae—Spray Test
Solvent: 78.0 parts by weight of acetone • • 1.5 parts by weight of dimethylformamide
Emulsifier: alkylaryl polyglycol ether
To produce a suitable active ingredient formulation, 1 part by weight of active ingredient is dissolved with the specified parts by weight of solvent and made up with water containing an emulsifier concentration of 1000 ppm until the desired concentration is attained. To produce further test concentrations, the formulation is diluted with emulsifier-containing water.
Discs of Chinese cabbage leaves (Brassica pekinensis) are sprayed with an active ingredient formulation of the desired concentration and, after drying, populated with larvae of the mustard beetle (Phaedon cochleariae).
After 7 days, the efficacy in % is determined. 100% means that all the beetle larvae have been killed; 0% means that no beetle larvae have been killed.

Spodoptera frugiperda = Spodoptera frugiperda spray test; type: in vivo; settings: after 7 days, maize leaf discs; for pest or weed control at 500 g/ha: Spodoptera frugiperda, foliar, 168 h, read-out: efficacy (caterpillars killed)
In short: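 Efficacy in % was scored at 7 days against armyworm caterpillars placed on dried, compound-sprayed Zea mays leaf discs. Compound was dissolved in acetone/dimethylformamide and diluted in water with 1000 ppm alkylaryl polyglycol ether. 100% means all caterpillars were killed.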

[1] = log P by HPLC on reversed-phase column (C 18), EEC Directive 79/831 Annex V.A8; type: physicochemical; settings: 55° C.; for LOGP_HCOOH: log P (HCOOH); for chromatographic logP: reversed-phase HPLC column (C 18)
Procedure: Temperature: 55° C. […] Called log P (HCOOH) in the table. […] Called log P (neutral) in the table.

[2] = acidic range pH 2.7, 0.1% aqueous formic acid and acetonitrile, reversed-phase column (C 18)
[3] = log P (neutral), HPLC reversed-phase column (C 18)
[4] = acidic range at pH 2.7, 0.1% aqueous formic acid and acetonitrile, HPLC on reversed-phase column (C 18)
[5] = log P, neutral range, HPLC on reversed-phase column (C 18)
[6] = pH 2.7, LC-MS acidic range, pH 2.7, 0.1% formic acid/acetonitrile, read-out: log P (acidic) / log P (HCOOH)
[7] = pH 7.8, LC-MS neutral range, pH 7.8, ammonium hydrogencarbonate/acetonitrile, read-out: log P (neutral)

Structure (SMILES)	efficacy (beetle larvae killed) (Phaedon cochleariae; application rate 500 g/ha) [%]	efficacy (caterpillars killed) (Spodoptera frugiperda; application rate 100 g/ha) [%]	efficacy (caterpillars killed) (Spodoptera frugiperda; application rate 500 g/ha) [%]	LOGP_HCOOH [1, 2]	LOGP_NEUTRAL [1, 3]	efficacy (beetle larvae killed) (Phaedon cochleariae; application rate 100 g/ha) [%]	LOGP_HCOOH [1, 4]	LOGP_NEUTRAL [1, 5]	pest or weed control at 500 g/ha (Phaedon cochleariae; application rate 500 g/ha) [%]	pest or weed control at 500 g/ha (Spodoptera frugiperda; application rate 500 g/ha) [%]	chromatographic logP [1, 6]	chromatographic logP [1, 7]
O=C(NCc1ccncc1)c1cc(-c2ccc(C(F)(F)C(F)(F)F)c(F)c2)cc(NC(=O)C2CC2)n1 [Example I-277]	83	100	100	2.17	3.33							
CC1(C(=O)Nc2cc(-c3ccc(OC(F)(F)F)cc3)cc(C(=O)NCc3ccc(C#N)cc3)n2)CC1 [Example I-147]	100	100	100			100	4.33					
Cc1cc(OC(F)(F)F)ccc1-c1cc(NC(=O)C2CC2)nc(C(=O)NCc2ccc(C#N)cc2)c1 [Example I-099]	100	100	100	4.03		100		3.95				
N#Cc1ccc(CNC(=N)c2cc(-c3ccc(OC(F)(F)F)cc3)cc(NC(=O)C3CC3)n2)cc1 [Example I-258, N-{6-[N-(4-Cyanobenzyl)carbamimidoyl]-4-[4-(trifluoromethoxy)phenyl]pyridin-2-yl}cyclopropanecarboxamide]				2.08	4.24				83	83	2.08	4.24
O=C(NCc1ccc(-c2nnco2)cc1)c1cc(-c2ccc(OC(F)(F)F)cc2)cc(NC(=O)C2CC2)n1 [Example I-112]	100	83	100				3.41	3.37				
CC(C)ONC(=O)c1cc(-c2ccc(OC(F)(F)F)cc2)cc(NC(=O)C2CC2)n1 [Example I-237, 6-[(Cyclopropylcarbonyl)amino]-N-isopropoxy-4-[4-(trifluoromethoxy)phenyl]pyridine-2-carboxamide]				3.50	3.45				83	100	3.5	3.45
N#Cc1ccc(CNC(=O)c2cc(-c3ncc(C(F)(F)F)cc3Cl)cc(NC(=O)C3CC3)n2)cc1 [Example I-119]	100	100	100			100	3.53	3.35				
CC(C)(CS(C)(=O)=O)NC(=O)c1cc(-c2ccc(C(F)(F)C(F)(F)F)c(F)c2)cc(NC(=O)C2CC2)n1 [Example I-253]	100	100	100	3.96	3.91	100						
N#Cc1ccc(CNC(=O)c2cc(-c3ccc(Br)c(F)c3)cc(NC(=O)C3CC3)n2)cc1 [Example I-262]	100	100	100	3.75	3.73	100						
CC(C)C(=O)Nc1cc(-c2ccc(C(F)(F)F)cc2)cc(C(=O)NC(C)c2ccc(C#N)cc2)n1 (stereo not drawn) [Example I-087]	83	100	100	4.20				4.15				
CCCNC(=O)c1cc(-c2ccc(OC(F)(F)F)cc2)cc(NC(=O)C2CC2)n1 [Example I-132]	100	100	100				3.78					
CC(C)C(=O)Nc1cc(-c2ccc(C(F)(F)F)cc2)cc(C(=O)NCc2cc(F)c(C#N)cc2F)n1 [Example I-071]	83	100	100	4.23				4.08				
N#Cc1cc(F)c(CNC(=O)c2cc(-c3ccc(OC(F)(F)F)cc3)cc(NC(=O)C3CC3)n2)cc1F [Example I-086]	100	100	83	4.15				4.02				
COC1(NC(=O)c2cc(-c3ccc(OC(F)(F)F)cc3)cc(NC(=O)C3CC3)n2)CC1 [Example I-140]	100	100	100			100	3.58					
N#Cc1ccc(CNC(=O)c2cc(-c3c(Cl)cc(C(F)(F)C(F)(F)F)c(F)c3Cl)cc(NC(=O)C3CC3)n2)cc1 [Example I-276]	100		83	4.57								
O=C(NC(=O)c1cc(-c2ccc(C(F)(F)C(F)(F)F)c(F)c2)cc(NC(=O)C2CC2)n1)c1ccc([N+](=O)[O-])cc1 [Example I-263]	100		100	4.57	4.54							
CC(C)NC(=O)c1cc(-c2ccc(OC(F)(F)F)cc2)cc(NC(=O)C2CC2)n1 [Example I-129]	100	100	100			100	3.84					
N#Cc1ccc(CNC(=O)c2cc(-c3ccc(SC(F)F)cc3)cc(NC(=O)C3CC3)n2)cc1 [Example I-180]	100					100	3.55	3.46				
N#CCCCONC(=O)c1cc(-c2ccc(OC(F)(F)F)cc2)cc(NC(=O)C2CC2)n1 [Example I-238]	83			3.13								
N#Cc1ccc(CNC(=O)c2cc(-c3ccc(OC(F)(F)F)c(Cl)c3)cc(NC(=O)C3CC3)n2)cc1 [Example I-230]						83	4.32	4.24				
N#Cc1ccc(CNC(=O)c2cc(-c3ccc(S(=O)(=O)C(F)(F)F)cc3)cc(NC(=O)C3CC3)n2)cn1 [Example I-097]	100			3.24				3.11				
N#Cc1ccc(CNC(=O)c2cc(-c3ccc(C(F)F)c(F)c3)cc(NC(=O)C3CC3)n2)cc1 [Example I-222]	100					100	3.39	3.34				
N#Cc1ccc(CNC(=O)c2cc(-c3ccc(F)cc3)cc(NC(=O)C3CC3)n2)cc1 [Example I-002]	100			3.24								
O=C(NCc1ccc(Cl)nc1)c1cc(-c2ccc(Cl)cc2)cc(NC(=O)C2CC2)n1 [Example I-024]	100			3.53				3.47				
